Results published in ChEMBL document CHEMBL3351763, “Design and synthesis of novel small molecule CCR2 antagonists: evaluation of 4-aminopiperidine derivatives” (Bioorg Med Chem Lett, 2014).

biological target: T1, C-C chemokine receptor type 2 (Homo sapiens, UniProt P41597); test: Displacement of [125I]CCL2 from CCR2 in human U2OS cell membranes at 1 uM by radioligand displacement assay
Target sequence in this assay (P41597 whole entry, looked up): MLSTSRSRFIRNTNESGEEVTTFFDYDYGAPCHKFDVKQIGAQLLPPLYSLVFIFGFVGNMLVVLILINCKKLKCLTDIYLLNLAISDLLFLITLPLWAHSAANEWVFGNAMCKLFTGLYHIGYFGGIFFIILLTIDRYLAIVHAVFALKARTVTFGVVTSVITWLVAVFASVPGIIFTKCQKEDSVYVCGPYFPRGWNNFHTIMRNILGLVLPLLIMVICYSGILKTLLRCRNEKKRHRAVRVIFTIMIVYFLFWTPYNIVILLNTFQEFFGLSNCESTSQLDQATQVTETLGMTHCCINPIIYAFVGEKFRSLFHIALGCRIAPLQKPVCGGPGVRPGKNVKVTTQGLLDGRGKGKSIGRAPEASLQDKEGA

First: O=C(CNC(=O)c1cccc(C(F)(F)F)c1)NC1CCN(Cc2ccc(Cl)cc2)CC1
Second: O=C(CNC(=O)c1cccc(C(F)(F)F)c1)NC1CCN(CCCc2ccccc2)CC1
The inhibition of the first is lower: 0% for the first, 6% for the second.

First: O=C(CNC(=O)c1cccc(C(F)(F)F)c1)NC1CCN(C2CCc3ccccc3C2)CC1 (stereo not given)
Second: Cc1ccccc1C1CCC(N2CCC(NC(=O)CNC(=O)c3cccc(C(F)(F)F)c3)CC2)CC1 (stereo not given)
The inhibition of the first is lower: 24% for the first, 26% for the second.

Compared with `COc1cccc(OC)c1C1CCC(N2CCC(NC(=O)CNC(=O)c3cccc(C(F)(F)F)c3)CC2)CC1` (stereo not given), `COc1cc(OC)cc(C2CCC(N3CCC(NC(=O)CNC(=O)c4cccc(C(F)(F)F)c4)CC3)CC2)c1` (stereo not given) is lower in inhibition: 42% for the first, 41% for the second.

First: O=C(NCC(=O)N1CCC(NC2CCC(c3ccccc3)CC2)CC1)c1cccc(C(F)(F)F)c1 (stereo not given)
Second: O=C(CNC(=O)c1cccc(C(F)(F)F)c1)NC1CCN(C2CCCC(c3ccccc3)C2)CC1 (stereo not given)
The inhibition of the first is higher: 31% for the first, 10% for the second.

Going from `Cc1ccc(C2CCC(N3CCC(NC(=O)CNC(=O)c4cccc(C(F)(F)F)c4)CC3)CC2)cc1` (stereo not given) to `O=C(CNC(=O)c1cccc(C(F)(F)F)c1)NC1CCN(Cc2cn(-c3ccccc3)nn2)CC1`, the inhibition falls from 38% to 12%.

biological target: T1, C-C chemokine receptor type 2; test: Displacement of [125I]CCL2 from CCR2 in human U2OS cell membranes by radioligand displacement assay
Target sequence in this assay (P41597 whole entry): as the sequence (P41597 whole entry, looked up) above

Going from `O=C(CNC(=O)c1cccc(C(F)(F)F)c1)NC1CCN(C2CCC(c3ccccc3)CC2)CC1` (stereo not given) to `Cc1cccc(C2CCC(N3CCC(NC(=O)CNC(=O)c4cccc(C(F)(F)F)c4)CC3)CC2)c1` (stereo not given), the Ki rises from 74 nM to 270 nM (3.6-fold). The first binds more tightly here.

Compared with `O=C(CNC(=O)c1cccc(C(F)(F)F)c1)NC1CCN(C2CCC(c3ccc(O)cc3)CC2)CC1` (stereo not given), `COc1cccc(C2CCC(N3CCC(NC(=O)CNC(=O)c4cccc(C(F)(F)F)c4)CC3)CC2)c1` (stereo not given) is 2.1-fold lower in Ki: 139 nM for the first, 66 nM for the second. The second binds more tightly here.

`O=C(CNC(=O)c1cccc(C(F)(F)F)c1)NC1CCN(C2CCC(c3ccc4c(c3)OCO4)CC2)CC1` (stereo not given) showed a Ki of 90 nM.
